From ChEMBL document CHEMBL2074485, “Identification of thyroid hormone transporters in humans: different molecules are involved in a tissue-specific manner” (Endocrinology, 2001)

Legend:
[1] = target: T1, Solute carrier organic anion transporter family member 4A1 (Homo sapiens, UniProt Q96BD0); assay: (§1) TP_TRANSPORTER: uptake in Xenopus laevis oocytes; format: functional, cell-based; details: oocyte
T1 sequence (Q96BD0 whole entry): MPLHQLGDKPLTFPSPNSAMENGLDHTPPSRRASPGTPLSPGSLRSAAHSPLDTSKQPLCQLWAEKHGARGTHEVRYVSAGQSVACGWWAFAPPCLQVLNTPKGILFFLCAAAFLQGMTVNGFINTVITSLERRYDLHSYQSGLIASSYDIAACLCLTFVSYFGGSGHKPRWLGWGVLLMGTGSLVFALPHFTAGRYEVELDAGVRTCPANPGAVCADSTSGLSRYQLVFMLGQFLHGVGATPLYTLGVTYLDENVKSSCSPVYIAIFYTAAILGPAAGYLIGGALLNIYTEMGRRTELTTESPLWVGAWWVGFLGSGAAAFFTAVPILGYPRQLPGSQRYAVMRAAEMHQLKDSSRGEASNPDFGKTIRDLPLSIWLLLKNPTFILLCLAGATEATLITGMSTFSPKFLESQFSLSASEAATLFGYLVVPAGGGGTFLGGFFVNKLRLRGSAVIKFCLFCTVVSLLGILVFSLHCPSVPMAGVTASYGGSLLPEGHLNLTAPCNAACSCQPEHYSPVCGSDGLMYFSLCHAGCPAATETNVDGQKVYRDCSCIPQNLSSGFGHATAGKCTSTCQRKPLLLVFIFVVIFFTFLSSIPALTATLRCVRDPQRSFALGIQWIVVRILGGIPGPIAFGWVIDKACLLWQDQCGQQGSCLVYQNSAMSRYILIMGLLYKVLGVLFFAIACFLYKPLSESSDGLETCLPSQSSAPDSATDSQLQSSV

[2] = target: T2, Solute carrier organic anion transporter family member 1A2 (OATP1A2, SLCO1A2) (Homo sapiens, UniProt P46721); assay: as §1; details: Xenopus laevis oocytes expressing the transporter
T2 sequence (P46721 whole entry): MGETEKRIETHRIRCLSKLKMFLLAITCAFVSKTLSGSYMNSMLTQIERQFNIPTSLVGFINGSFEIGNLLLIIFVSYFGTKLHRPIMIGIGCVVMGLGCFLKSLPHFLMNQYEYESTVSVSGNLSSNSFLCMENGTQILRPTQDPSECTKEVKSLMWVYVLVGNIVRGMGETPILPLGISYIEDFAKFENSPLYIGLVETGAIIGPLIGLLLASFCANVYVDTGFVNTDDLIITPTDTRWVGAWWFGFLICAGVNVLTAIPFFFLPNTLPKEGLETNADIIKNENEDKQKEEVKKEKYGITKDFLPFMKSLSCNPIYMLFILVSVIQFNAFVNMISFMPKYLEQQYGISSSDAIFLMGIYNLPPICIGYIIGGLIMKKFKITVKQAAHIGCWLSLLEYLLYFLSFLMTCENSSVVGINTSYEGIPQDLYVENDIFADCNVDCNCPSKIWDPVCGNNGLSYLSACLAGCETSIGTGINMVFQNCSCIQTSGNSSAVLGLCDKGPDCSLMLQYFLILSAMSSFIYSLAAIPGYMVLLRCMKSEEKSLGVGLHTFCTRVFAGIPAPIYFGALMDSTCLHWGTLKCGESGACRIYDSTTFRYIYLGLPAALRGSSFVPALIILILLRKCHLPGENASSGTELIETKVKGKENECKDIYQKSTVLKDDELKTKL

[3] = target: T1, Solute carrier organic anion transporter family member 4A1; assay: TP_TRANSPORTER: inhibition of T3 uptake (T3: 1 uM, T4: 100 uM) in Xenopus laevis oocytes; format: functional, cell-based; details: oocyte
[4] = target: T1, Solute carrier organic anion transporter family member 4A1; assay: TP_TRANSPORTER: inhibition of Taurocholate uptake (Taurochorate: 5 uM, T3: 50 uM) in Xenopus laevis oocytes; format: functional, cell-based; details: oocyte
[5] = target: T1, Solute carrier organic anion transporter family member 4A1; assay: TP_TRANSPORTER: inhibition of Taurocholate uptake (Taurochorate: 5 uM, BSP: 50 uM) in Xenopus laevis oocytes; format: functional, cell-based; details: oocyte
[6] = substrate: N[C@@H](Cc1cc(I)c(Oc2ccc(O)c(I)c2)c(I)c1)C(=O)O; assay: as §1; format: functional, cell-based, Oocyte

N[C@@H](Cc1cc(I)c(Oc2cc(I)c(O)c(I)c2)c(I)c1)C(=O)O [LEVOTHYROXINE]
Activity [1]: substrate [+] | Km [2]: 8 µM | Activity [3]: inhibitor [(at a rough estimate) 15 % of control]

N[C@@H](Cc1cc(I)c(Oc2ccc(O)c(I)c2)c(I)c1)C(=O)O [LIOTHYRONINE]
Activity [4]: inhibitor [(at a rough estimate) 30 % of control]

N[C@@H](Cc1ccc(Oc2cc(I)c(O)c(I)c2)c(I)c1)C(=O)O [REVERSE TRIIODOTHYRONINE]
Activity [1]: substrate [+]

O=C1OC(c2ccc(O)c(S(=O)(=O)[O-])c2)(c2ccc(O)c(S(=O)(=O)[O-])c2)c2c(Br)c(Br)c(Br)c(Br)c21.[Na+].[Na+] [SULFOBROMOPHTHALEIN SODIUM]
Activity [5]: inhibitor [(at a rough estimate) 15 % of control]

B1: Solute carrier organic anion transporter family member 4A1 (Homo sapiens) (protein)
chain: MPLHQLGDKPLTFPSPNSAMENGLDHTPPSRRASPGTPLSPGSLRSAAHSPLDTSKQPLCQLWAEKHGARGTHEVRYVSAGQSVACGWWAFAPPCLQVLNTPKGILFFLCAAAFLQGMTVNGFINTVITSLERRYDLHSYQSGLIASSYDIAACLCLTFVSYFGGSGHKPRWLGWGVLLMGTGSLVFALPHFTAGRYEVELDAGVRTCPANPGAVCADSTSGLSRYQLVFMLGQFLHGVGATPLYTLGVTYLDENVKSSCSPVYIAIFYTAAILGPAAGYLIGGALLNIYTEMGRRTELTTESPLWVGAWWVGFLGSGAAAFFTAVPILGYPRQLPGSQRYAVMRAAEMHQLKDSSRGEASNPDFGKTIRDLPLSIWLLLKNPTFILLCLAGATEATLITGMSTFSPKFLESQFSLSASEAATLFGYLVVPAGGGGTFLGGFFVNKLRLRGSAVIKFCLFCTVVSLLGILVFSLHCPSVPMAGVTASYGGSLLPEGHLNLTAPCNAACSCQPEHYSPVCGSDGLMYFSLCHAGCPAATETNVDGQKVYRDCSCIPQNLSSGFGHATAGKCTSTCQRKPLLLVFIFVVIFFTFLSSIPALTATLRCVRDPQRSFALGIQWIVVRILGGIPGPIAFGWVIDKACLLWQDQCGQQGSCLVYQNSAMSRYILIMGLLYKVLGVLFFAIACFLYKPLSESSDGLETCLPSQSSAPDSATDSQLQSSV
Km [6]: 0.9 µM
